Test results published in article PMC4721142, “Randomized controlled studies on the efficacy of antiarthritic agents in inhibiting cartilage degeneration and pain associated with progression of osteoarthritis in the rat” (Arthritis Research & Therapy, 2016).
Values joined by “and” are separate entries in the source; they are usually repeats but may differ in a detail not shown here. Identical values can stand only once.

Legend:
[1] = system: MMP-13; experiment: MMP-13 ELISA on supernatants of TNF-α-treated chondrogenic pellets; assay type: cell-based, human
[2] = system: MMT/MCLT rat model of OA; experiment: MMT/MCLT trial 1 weight bearing (daily morphine 10 mg/kg, tacrolimus 0.3 or 0.6 mg/kg, fluocinolone 5 or 10 μg/kg, clonidine 100 μg/kg, alendronate 10 μg/kg i.p.; curcumin, withaferin 50 mg/kg p.o.); assay type: in vivo; settings: low or only dose
Method: Weight bearing (WB; incapacitance) was measured five times per day, once per week, using a Linton incapacitance meter (Stoelting Co., Wood Dale, IL, USA). Rats were acclimated to the meter before study initiation, and, similarly, immediately before WB, the animals were placed in the meter and allowed to acclimate for 2–5 minutes. Each hind paw was placed on a separate force plate so that the force exerted by each side could be averaged over a 5-second interval, and the mean of three readings was taken for each data point. Right paw force was compared with that on the left side for each group to confirm that animals were displaying incapacitance and/or pain behavior. Differences in force (left minus right) and right paw force as a percentage of the total force exerted by both paws were determined and compared between groups.
Following isoflurane anesthesia, the medial collateral ligament was transected just below its attachment to the meniscus in the right knee. The meniscus was cut at its narrowest point away from the ossicles so as not to damage the tibial surface and to ensure that the anterior and posterior meniscus halves were freely movable. […] In trial 2, drugs were administered IA weekly beginning 1 week following surgery. Three weeks postsurgery, animals were humanely killed and their right knees were collected for histopathology. All studies were conducted in accordance with the International Association for the Study of Pain Guidelines and were approved by the Bolder BioPATH IACUC (Boulder, CO, USA) in compliance with regulations before study initiation (IACUC protocol BBP03-006). Those running the studies were blinded to the treatments. See Additional file 1 for further details.
Isoflurane and the right knee area prepared for surgery. A skin incision was made over the medial aspect of the knee and the medial collateral ligament was exposed by blunt dissection and then transected. The medial meniscus was cut through the full thickness to simulate a complete tear and the skin was then closed with suture.
All pharmaceutical agents were prepared and stored as recommended by the supplier. Daily drug preparations were made fresh from stock solutions. […]
In Trial 2 drugs were […]
administered IA weekly beginning one week following surgery. […]
were delivered by gavage and were prepared in 0.3% Methyl Cellulose.
WB was measured five times a day, once a week, using a Linton incapacitance meter (Stoelting Co.) to assess pain behavior. Rats were acclimated to the incapacitance meter prior to study initiation.
Similarly, immediately prior to WB animals were placed in the incapacitance meter and allowed to acclimate for 2-5 minutes. Each hind paw was placed on a separate force plate so that the force exerted by each side could be averaged over a 5 second interval and the mean of three readings taken for each data point. Right paw force was compared to left for each group to confirm that animals were displaying incapacitance / pain behavior. Difference in force (left minus right) and right paw force as a percentage of the total force exerted by both paws were determined and compared between groups. Three weeks after surgery, animals were humanely euthanized and right knees collected for histopathology evaluation.
Figure 2. MMT/MCLT Trial Timeline […]
MMT/MCLT Dosing (once/day)
The study design and animal usage was approved by Bolder BioPATH’s Institutional Animal Care and Use Committee (IACUC) for compliance with regulations prior to study initiation (IACUC […]
Labs. Animals were identified by a distinct mark at the base of the tail delineating group and animal number. After randomization, all cages were labeled with protocol number, group numbers, and animal numbers with appropriate color-coding (see protocol).

[3] = system: MMT/MCLT rat model of OA; experiment: MMT/MCLT trial 1 histopathology (same doses); assay type: in vivo; settings: low or only dose
Source text: For MMT/MCLT rat knee joints, sections were cut in 200-μm steps; stained with toluidine blue (also with a right and left half per section); and similarly analyzed for cartilage degeneration, proteoglycan loss, collagen damage, and osteophyte formation. Results were averaged across the three sections for an overall semiquantitative score. Regional differences across the tibial plateau were taken into consideration by dividing each section into three zones delineated using an ocular micrometer (outside, middle, and inside). Scores were based on the percentage of area affected within the zone.
Cartilage degeneration in the tibia was scored on a 5-point scale as detailed in the Methods section of Additional file 1. The total extent of degeneration of the tibial plateau was measured (in micrometers) and included an analysis of cell loss, proteoglycan loss, and collagen damage. Significant cartilage degeneration reflecting any degeneration extending through more than 50 % of the cartilage thickness was also measured. Collagen damage across the medial tibial plateau (the most severely affected section of the two halves) was also quantified.
Osteophytes and femoral cartilage degeneration were analyzed as detailed in Additional file 1. Scoring of the osteophytes and categorization into small, medium, and large was performed using an ocular micrometer. The actual osteophyte measurement (tidemark to farthest distance point extending toward the synovium) was also recorded. The femoral cartilage degeneration score and the three-zone sum of the tibial cartilage degeneration scores (mean of three levels) were summed to create a total cartilage degeneration score. The mean osteophyte score for each joint was added to this value to create a total joint score. […]
Histopathology MMT/MCLT Model

With `NCCCC(O)(P(=O)(O)O)P(=O)(O)O` [Alendronate, Alendronate sodium] the “Effective range against MMP-13” value [1] was “Not effective”, the “Weight bearing, hours with significant effect” value ([2]; day 7) was 5 h and the “Weight bearing, hours with significant effect” value ([2]; day 14) was 1 h. For the same molecule, the Bone score ([3]; mean) was 2.75, the “Femoral cartilage degeneration score” value ([3]; mean) was 1.79 and 1.79 ± 0.60 and the “Tibial cartilage degeneration score, 3-zone total” value ([3]; mean) was 5.83. For the same molecule, the “Tibial cartilage degeneration score, zone 1” value ([3]; mean) was 3.79, the “Tibial cartilage degeneration score, zone 2” value ([3]; mean) was 2.04 and the “Tibial cartilage degeneration score, zone 3” value ([3]; mean) was 0.00. The “Tibial cartilage degeneration width, significant” value ([3]; mean) was 650.00 µm, the “Tibial cartilage degeneration width, total” value ([3]; mean) was 1175.00 µm and the Tibial osteophyte measure ([3]; mean) was 479.17 µm. The Tibial osteophyte score ([3]; mean) was 3.63, the Total joint score ([3]; mean) was 11.25 and the “Total joint score w/o femur” value ([3]; mean) was 9.46. The “% decrease, bone score” value ([3]; vs saline group) was 15%, the “% decrease, femoral cartilage degeneration score” value ([3]; vs saline group) was 2% and the “% decrease, osteophyte measure” value ([3]; vs saline group) was 7%. For the same molecule, the “% decrease, osteophyte score” value ([3]; vs saline group) was 7%, the “% decrease, significant degeneration width” value ([3]; vs saline group) was 11% and the “% decrease, tibial score 3-zone total” value ([3]; vs saline group) was 11%. The “% decrease, tibial score zone 1” value ([3]; vs saline group) was 12%, the “% decrease, tibial score zone 2” value ([3]; vs saline group) was 8% and the “% decrease, tibial score zone 3” value ([3]; vs saline group) was 100%. The “% decrease, total degeneration width” value ([3]; vs saline group) was 10%, the “% decrease, total joint score” value ([3]; vs saline group) was 8% and the “% decrease, total joint score w/o femur” value ([3]; vs saline group) was 10%.
